Assay results: the supplement of paper PMC10307832

What was measured:
Experiment in all cases: relative viability (nuclei count vs DMSO), 5 days (fraction); higher = more cells survive
[1] = compound: CC1CC(=O)N(C2=CN=C(N=C2N1C3CCCC3)NC4=C(C=C(C=C4)C(=O)NC5CCN(CC5)C)OC)C [NPK76-II-72-1] + COc1cc2c(Oc3ccc(NC(=O)C4(C(=O)Nc5ccc(F)cc5)CC4)cc3F)ccnc2cc1OCCCN1CCOCC1 [Foretinib] (partner 0.25 µM)
Method in brief: (§1)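 For relative viability, nuclei counts in treated wells were divided by those in vehicle wells. Lung cancer cell lines had been pin-tool dosed in 1536-well plates the day after seeding and cultured for 5 days, then fixed and stained in one step (final 0.05% Triton X-100, 1% formaldehyde, 1 ug/ml Hoechst) and imaged at 4×. Doses were one drug alone or a fixed anchor-drug dose plus five library-drug doses (not always all listed) in √10 steps, and values are duplicate-plate medians.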

BI-2536 + OSI-027 = compound: CC[C@@H]1C(=O)N(C)c2cnc(Nc3ccc(C(=O)NC4CCN(C)CC4)cc3OC)nc2N1C1CCCC1 [BI-2536] + COc1cccc2cc(-c3nc([C@H]4CC[C@H](C(=O)O)CC4)n4ncnc(N)c34)[nH]c12 [OSI-027] (partner 0.5 µM)
Method in brief: as §1

BI-2536 + Lapatinib = compound: CC[C@@H]1C(=O)N(C)c2cnc(Nc3ccc(C(=O)NC4CCN(C)CC4)cc3OC)nc2N1C1CCCC1 [BI-2536] + CS(=O)(=O)CCNCc1ccc(-c2ccc3ncnc(Nc4ccc(OCc5cccc(F)c5)c(Cl)c4)c3c2)o1 [Lapatinib] (partner 2 µM)
Method in brief: as §1

BI-2536 + Pemetrexed = compound: CC[C@@H]1C(=O)N(C)c2cnc(Nc3ccc(C(=O)NC4CCN(C)CC4)cc3OC)nc2N1C1CCCC1 [BI-2536] + Nc1nc2[nH]cc(CCc3ccc(C(=O)N[C@@H](CCC(=O)O)C(=O)O)cc3)c2c(=O)[nH]1 [Pemetrexed] (partner 0.2 µM)
Method in brief: as §1

Cell Line	relative viability ([1]; first compound 0.01 µM)	relative viability ([1]; first compound 0.03162 µM)	relative viability ([1]; first compound 0.1 µM)	relative viability ([1]; first compound 0.3162 µM)	relative viability ([1]; first compound 1 µM)	relative viability (BI-2536 + OSI-027; first compound 0.01 µM)	relative viability (BI-2536 + OSI-027; first compound 0.03162 µM)	relative viability (BI-2536 + OSI-027; first compound 0.1 µM)	relative viability (BI-2536 + OSI-027; first compound 0.3162 µM)	relative viability (BI-2536 + OSI-027; first compound 1 µM)	relative viability (BI-2536 + Lapatinib; first compound 0.01 µM)	relative viability (BI-2536 + Lapatinib; first compound 0.03162 µM)	relative viability (BI-2536 + Lapatinib; first compound 0.1 µM)	relative viability (BI-2536 + Lapatinib; first compound 0.3162 µM)	relative viability (BI-2536 + Lapatinib; first compound 1 µM)	relative viability (BI-2536 + Pemetrexed; first compound 0.01 µM)	relative viability (BI-2536 + Pemetrexed; first compound 0.03162 µM)	relative viability (BI-2536 + Pemetrexed; first compound 0.1 µM)	relative viability (BI-2536 + Pemetrexed; first compound 0.3162 µM)	relative viability (BI-2536 + Pemetrexed; first compound 1 µM)
HCC-78	0.561	0.549	0.489	0.507	0.616	0.376	0.359	0.317	0.363	0.198	0.403	0.885	0.814	0.39	0.18	0.981	0.874	0.932	0.895	0.847
HCC-366	0.929	0.953	0.906	0.944	0.951	0.835	0.856	0.146	0.0244	0.0284	1.06	0.682	0.04	0.0163	0.0221	0.193	0.17	0.157	0.024	0.0288
HCC-827	1.01	1.06	0.912	1.03	1.12	0.715	0.752	0.853	0.285	0.195	0.209	0.117	0.176	0.178	0.157	0.232	0.253	0.224	0.227	0.187
HOP-62	1.06	1.27	0.993	1.15	1.08	0.803	0.724	0.526	0.268	0.181	0.965	0.99	0.705	0.142	0.135	0.394	0.29	0.225	0.109	0.151
IA-LM	1.06	1.18	1.18	1.12	1.26						0.699	0.639	0.408	0.139	0.0816					
LC-2-ad	0.908	0.948	0.94	0.809	1.08	0.903	0.743	0.247	0.283	0.33	0.995	0.715	0.121	0.127	0.131	0.281	0.234	0.171	0.165	0.177
LCLC-97TM1	0.935	0.973	0.85	0.881	0.948	0.575	0.538	0.434	0.138	0.167	0.919	0.737	0.114	0.13	0.117	0.176	0.159	0.0973	0.0981	0.0935
LCLC-103H	0.666	0.726	0.717	0.745	0.739	0.462	0.466	0.485	0.215	0.155						0.458	0.488	0.344	0.231	0.225
LK-2	1.15	1.26	1.09	1.09	1.13	0.202	0.183	0.169	0.158	0.151	0.883	0.81	0.336	0.163	0.199	0.249	0.249	0.0925	0.0896	0.1
LOU-NH91	0.871	0.933	0.948	0.795	1	0.716	0.697	0.695	0.416	0.244	0.794	0.756	0.663	0.284	0.291	0.38	0.39	0.284	0.26	0.336
NCI-H441	0.931	1.09	0.785	0.823	1.16	0.449	0.42	0.222	0.226	0.266						0.287	0.242	0.195	0.148	0.13
NCI-H522						0.752	0.72	0.445	0.399	0.372						1.1	0.977	1.03	0.342	0.288
NCI-H727	0.93	1.04	0.783	1.14	0.897	0.597	0.471	0.499	0.334	0.338	0.972	0.853	0.512	0.268	0.242					
NCI-H1299	1.11	1.12	1.2	1.07	1.03						0.933	0.933	0.69	0.291	0.235					
NCI-H1623	0.836	0.872	0.914	0.566	0.998	0.433	0.392	0.39	0.233	0.294										
NCI-H1648						0.258	0.25	0.233	0.203	0.24						0.878	0.511	0.41	0.293	0.265
NCI-H1703	0.363		0.316	0.35	0.343						0.956		0.323	0.174	0.113					
NCI-H1792						0.818	0.758	0.678	0.591	0.395	0.93	0.751	1.09	0.186	0.0746	0.779	0.792	0.328	0.0539	0.0316
NCI-H2342	0.948	1.1	1.09	0.88	1.15	0.664	0.546	0.598	0.362	0.367							0.724	0.716	0.373	0.42
SW 900	0.864	1.27	0.852	0.76	0.947	0.6	0.427	0.456	0.129	0.132						0.492	0.468	0.46	0.198	0.149
